Data set [1] concerns the target T1, DOR (Homo sapiens, UniProt P41143). Briefly: PDSP radioligand binding assay. Here is the method:
(§1) The broader selectivity of compound 1{3} was tested against additional targets and basic pharmacological properties were assessed. […] The compound was initially screened in radioligand binding assays at a constant concentration (10 μM) to identify possible activity of the compound. Results showing significant activity in the initial screen were selected for Ki determinations.
(§2) As a representative of the Chemotype II series, the MLPCN probe molecule 2{8} was subjected to a binding assay panel of 44 GPCR and other molecular targets by the Pyschoactive Drug Screening Program (PDSP) (Table 10). The compound was initially screened in a radioligand binding assay at a constant concentration (10 μM) to identify possible activity of the compound. Results showing significant activity in the initial screen were selected for Ki determinations.

Data set [2] addresses T2, MOR (Homo sapiens, UniProt P35372). Nature of the data set: PDSP radioligand binding assay. Here is the method: as §1, §2
A further data set addresses D3 (Homo sapiens, UniProt P35462). Nature of the data set: PDSP radioligand binding assay. Here is the method:
as §1, §2

The nature of data set [3]: Plasma protein binding, human. It is filed as in vitro ADME. An excerpt:
Plasma protein binding is a measure of a drug's efficiency to bind to the proteins within blood plasma. The less bound a drug is, the more efficiently it can traverse cell membranes or diffuse. Highly plasma protein bound rugs are confined to the vascular space, thereby having a relatively low volume of distribution. In contrast, drugs that remain largely unbound in plasma are generally available for distribution to other organs and tissues. In the instant case, the Chemotype I antagonist 1{3} was marginally available with 88.46% and 80.07% bound to 1 μM and 10 μM mouse plasma protein, respectively, and 93.96% and 88.54% bound to 1 μM and 10 μM human plasma protein, respectively.

For data set [4], the target named is T3, KOP receptor (Homo sapiens, UniProt P41145). Nature of the data set: ERK 1/2 activation, inhibition. It is filed as cell-based.
Data set [5] addresses T3, KOP receptor. Nature of the data set: 35S-GTPγS coupling, inhibition. The data set is classed as biochemical.
Data set [6] is described as follows: Stability in PBS at room temperature. The data set is classed as physicochemical. Conditions: 48 hours, <0.1% DMSO.
The target of data set [7] is T2, MOR. Briefly: High content imaging β-arrestin translocation assay, MOR antagonist (MOR HCS). It is filed as cell-based. To be noted: antagonist; average; read-out: Potency, Antitarget MOR HCS. An excerpt:
(§3) In this campaign, two assay platforms were employed to evaluate KOR activity and selectivity: the KOR1 DISCOVERX β-Arrestin […] assay and an imaging based β-arrestin translocation assay for confirmatory and selectivity assays. The KOR1 DISCOVERX β-Arrestin […] assay is a commercial platform for direct measurement of GPCR (G protein-coupled receptor) activation by detection of β-Arrestin binding to the KOR. […] In cells that stably express these fusion proteins, ligand stimulation results in the recruitment of β-Arrestin by the GPCR. This interaction encourages the complementation of the two β-galactosidase fragments resulting in the formation of a functional enzyme that converts substrate in the assay medium to a detectable signal. The imaging based high-content β-arrestin translocation assay is based upon the redistribution of β-Arrestin linked to green fluorescent protein (GFP) to the cell surface and detection (Barak, et al. (1997) J. Biol. Chem. 272:27497-27500).
(§4) Initially, a portion (approximately 290,000 compounds) of the MLSMR compound collection was tested in the KOR1 DISCOVERX β-arrestin primary kappa opioid (KOP) agonist and antagonist screens (PUBCHEM AID 1777 and 1778, respectively) at a single concentration point (10 μM). […] These compounds were concurrently tested in a β-galactosidase counterscreen assay (PUBCHEM AID 1966) to assess the possibility that these compounds might inhibit the reporting enzyme. […] The KOR:DOR:MOR selectivity of the compounds was determined using the analogous β-arrestin translocation assays for the DOR (PUBCHEM AID 2370 and 2357, for agonists and antagonist, respectively) and the MOR (PUBCHEM AID 2352 and 2420, for agonists and antagonists, respectively).

The next data set is described as follows: physchem. The procedure: In addition to profiling the selectivity of this class of KOR ligands, basic pharmacological properties were assessed.
The conditions of data set [8]: pH 7.4. Here is the method: PAMPA is used as an in vitro model of passive, transcellular permeability. An artificial membrane immobilized on a filter is placed between a donor and acceptor compartment. At the start of the test, drug is introduced in the donor compartment (at various pH). Following the permeation period, the concentrations of compound in the donor compartment and acceptor compartment are measured using UV spectroscopy.

Another data set has as its target 5ht2b (Homo sapiens, UniProt P41595). Nature of the data set: PDSP radioligand binding assay. Here is the method:
(§5) The compound was initially screened in radioligand binding assays at a constant concentration (10 μM) to identify possible activity of the compound. Results showing significant activity in the initial screen were selected for Ki determinations.
as §2

The target in the next data set is Alpha1D (Homo sapiens, UniProt P25100). Briefly: PDSP radioligand binding assay. Here is the method:
as §5, §2

A further data set deals with M2 (Homo sapiens, UniProt P08172). Briefly: PDSP radioligand binding assay. Here is the method:
as §5, §2

For a further data set, the target named is M3 (Homo sapiens, UniProt P20309). Briefly: PDSP radioligand binding assay. Here is the method:
as §5, §2

In a further data set the target is H3 (Homo sapiens, UniProt Q9Y5N1). Nature of the data set: PDSP radioligand binding assay. Here is the method: as §5, §2
The target of another data set is 5ht1d (Homo sapiens, UniProt P28221). Nature of the data set: PDSP radioligand binding assay. The procedure: as §5, §2
Another data set has as its target SERT (Homo sapiens, UniProt P31645). Briefly: PDSP radioligand binding assay. Here is the method:
as §5, §2

The next data set concerns the target Beta1 (Homo sapiens, UniProt P08588). Nature of the data set: PDSP radioligand binding assay. The procedure:
as §5, §2

Data set [9] is described as follows: Hepatic microsome stability, human. To be noted: human microsomes, 1 hour. The data set is classed as in vitro ADME. An excerpt: (§6) The microsomal stability assay is commonly used to rank compounds according to their metabolic stability. This assay addresses the pharmacologic question of how long the parent compound will remain circulating in plasma within the body.

The target in data set [10] is T1, DOR. Nature of the data set: High content imaging β-arrestin translocation assay, DOR antagonist (DOR HCS). Conditions: antagonist; average; read-out: Potency, Antitarget DOR HCS. The data set is classed as cell-based.
From the text: as §3, §4

Data set [11] in a line: Hepatic microsome stability, mouse. To be noted: mouse microsomes, 1 hour. The data set is classed as in vitro ADME.
From the text: as §6

In data set [12] the target is T2, MOR. Nature of the data set: High content imaging based β-arrestin translocation assay, MOR agonist (MOR HCS). It is filed as cell-based. Conditions: n = 2, read-out: Average Potency MOR HCS.
Where [13] appears, read: Table 10, average of separate Ki determinations.

Converted amounts (≈) assume the structure as drawn. Marks after values point to notes of the source that are not given here.

T2 sequence (P35372 whole entry): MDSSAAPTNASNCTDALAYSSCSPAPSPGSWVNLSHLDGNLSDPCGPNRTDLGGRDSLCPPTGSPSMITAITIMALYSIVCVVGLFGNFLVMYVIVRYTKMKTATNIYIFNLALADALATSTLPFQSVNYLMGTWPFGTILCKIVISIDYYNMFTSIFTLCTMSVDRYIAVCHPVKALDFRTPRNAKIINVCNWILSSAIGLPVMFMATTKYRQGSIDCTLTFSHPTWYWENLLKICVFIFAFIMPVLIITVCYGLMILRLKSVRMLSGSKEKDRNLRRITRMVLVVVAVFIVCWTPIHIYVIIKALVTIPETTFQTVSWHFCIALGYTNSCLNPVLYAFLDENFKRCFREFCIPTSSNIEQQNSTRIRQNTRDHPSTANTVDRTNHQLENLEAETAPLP
T1 sequence (P41143 whole entry): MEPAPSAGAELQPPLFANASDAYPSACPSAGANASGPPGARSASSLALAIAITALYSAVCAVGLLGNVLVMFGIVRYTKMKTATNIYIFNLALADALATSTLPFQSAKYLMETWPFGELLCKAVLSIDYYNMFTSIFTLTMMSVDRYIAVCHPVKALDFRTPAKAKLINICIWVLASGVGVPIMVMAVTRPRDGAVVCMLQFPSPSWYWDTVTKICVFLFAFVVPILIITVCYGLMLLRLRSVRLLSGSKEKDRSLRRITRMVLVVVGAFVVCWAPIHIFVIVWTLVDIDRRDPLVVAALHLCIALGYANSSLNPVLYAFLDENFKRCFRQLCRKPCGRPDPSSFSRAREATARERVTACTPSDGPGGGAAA
T3 sequence (P41145 whole entry): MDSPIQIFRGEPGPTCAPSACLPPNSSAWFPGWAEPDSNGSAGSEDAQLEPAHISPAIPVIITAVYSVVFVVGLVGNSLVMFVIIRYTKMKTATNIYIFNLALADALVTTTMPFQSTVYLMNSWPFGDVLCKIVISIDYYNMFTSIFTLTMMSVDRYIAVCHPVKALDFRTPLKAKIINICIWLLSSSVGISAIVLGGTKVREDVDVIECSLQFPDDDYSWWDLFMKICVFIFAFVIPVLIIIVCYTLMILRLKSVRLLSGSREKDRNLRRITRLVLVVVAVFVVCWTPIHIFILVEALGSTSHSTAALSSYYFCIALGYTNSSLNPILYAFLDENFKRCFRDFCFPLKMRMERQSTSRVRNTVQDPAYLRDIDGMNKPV
Chain of 5ht2b (P41595 whole entry, species assumed): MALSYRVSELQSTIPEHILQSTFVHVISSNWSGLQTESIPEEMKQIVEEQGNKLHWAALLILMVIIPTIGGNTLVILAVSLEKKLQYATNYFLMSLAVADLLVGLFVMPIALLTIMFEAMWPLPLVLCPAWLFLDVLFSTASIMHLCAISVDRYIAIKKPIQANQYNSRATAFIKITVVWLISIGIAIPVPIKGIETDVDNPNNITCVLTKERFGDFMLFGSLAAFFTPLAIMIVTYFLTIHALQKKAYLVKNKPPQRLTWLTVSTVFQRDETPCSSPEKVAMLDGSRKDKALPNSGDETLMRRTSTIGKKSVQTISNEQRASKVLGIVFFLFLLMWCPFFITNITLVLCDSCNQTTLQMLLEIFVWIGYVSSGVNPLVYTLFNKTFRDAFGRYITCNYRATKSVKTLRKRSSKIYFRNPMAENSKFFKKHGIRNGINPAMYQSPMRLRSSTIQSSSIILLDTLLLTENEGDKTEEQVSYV
Chain of M3 (P20309 whole entry): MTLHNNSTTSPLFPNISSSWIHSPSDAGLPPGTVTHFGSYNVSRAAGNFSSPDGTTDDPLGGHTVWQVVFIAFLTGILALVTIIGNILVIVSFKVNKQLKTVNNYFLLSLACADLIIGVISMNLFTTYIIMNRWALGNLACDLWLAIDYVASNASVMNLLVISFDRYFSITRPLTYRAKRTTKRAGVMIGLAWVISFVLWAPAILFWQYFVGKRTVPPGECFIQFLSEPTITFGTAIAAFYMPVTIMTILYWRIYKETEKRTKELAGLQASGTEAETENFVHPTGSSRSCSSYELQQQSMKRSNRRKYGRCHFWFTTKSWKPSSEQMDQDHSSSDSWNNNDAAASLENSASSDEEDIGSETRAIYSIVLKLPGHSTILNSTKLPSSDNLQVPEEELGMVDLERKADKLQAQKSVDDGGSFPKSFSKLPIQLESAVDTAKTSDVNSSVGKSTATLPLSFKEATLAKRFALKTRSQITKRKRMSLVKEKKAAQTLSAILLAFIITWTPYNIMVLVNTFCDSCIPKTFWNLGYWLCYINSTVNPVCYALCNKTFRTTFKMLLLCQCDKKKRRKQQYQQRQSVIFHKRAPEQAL
Chain of Beta1 (P08588 whole entry): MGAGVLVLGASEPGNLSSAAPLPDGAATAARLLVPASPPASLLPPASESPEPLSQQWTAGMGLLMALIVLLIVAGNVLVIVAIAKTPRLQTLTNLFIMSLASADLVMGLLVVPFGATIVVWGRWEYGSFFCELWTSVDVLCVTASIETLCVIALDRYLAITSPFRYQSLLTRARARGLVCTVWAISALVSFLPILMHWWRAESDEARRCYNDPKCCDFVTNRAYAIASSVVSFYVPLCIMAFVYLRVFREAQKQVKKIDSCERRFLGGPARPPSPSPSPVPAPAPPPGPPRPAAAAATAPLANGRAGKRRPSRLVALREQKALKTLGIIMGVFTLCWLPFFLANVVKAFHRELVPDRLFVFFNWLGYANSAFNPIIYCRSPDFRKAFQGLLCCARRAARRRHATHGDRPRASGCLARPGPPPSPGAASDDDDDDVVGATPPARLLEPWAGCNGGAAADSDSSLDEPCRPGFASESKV
Chain of 5ht1d (P28221 whole entry, species assumed): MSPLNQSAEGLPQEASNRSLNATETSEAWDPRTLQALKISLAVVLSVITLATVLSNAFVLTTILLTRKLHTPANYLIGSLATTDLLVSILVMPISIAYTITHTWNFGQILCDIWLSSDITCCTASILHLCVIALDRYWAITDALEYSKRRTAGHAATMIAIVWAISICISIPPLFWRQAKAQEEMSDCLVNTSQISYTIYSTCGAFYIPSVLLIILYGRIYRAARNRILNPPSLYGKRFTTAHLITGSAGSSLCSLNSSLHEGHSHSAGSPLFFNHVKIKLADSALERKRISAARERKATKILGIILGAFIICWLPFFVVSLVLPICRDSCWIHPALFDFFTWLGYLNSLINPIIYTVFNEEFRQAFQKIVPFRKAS
Chain of D3 (P35462 whole entry): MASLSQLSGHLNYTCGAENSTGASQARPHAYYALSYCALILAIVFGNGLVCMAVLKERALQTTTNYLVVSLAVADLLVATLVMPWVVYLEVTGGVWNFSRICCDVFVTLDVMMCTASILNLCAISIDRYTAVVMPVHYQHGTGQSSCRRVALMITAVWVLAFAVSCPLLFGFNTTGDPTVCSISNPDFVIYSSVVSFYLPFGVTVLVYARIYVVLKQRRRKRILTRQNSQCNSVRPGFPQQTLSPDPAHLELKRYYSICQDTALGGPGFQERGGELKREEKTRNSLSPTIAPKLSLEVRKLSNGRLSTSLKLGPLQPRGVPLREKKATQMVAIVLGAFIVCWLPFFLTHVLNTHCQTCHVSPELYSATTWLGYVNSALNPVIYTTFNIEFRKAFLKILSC
Chain of SERT (P31645 whole entry, species assumed): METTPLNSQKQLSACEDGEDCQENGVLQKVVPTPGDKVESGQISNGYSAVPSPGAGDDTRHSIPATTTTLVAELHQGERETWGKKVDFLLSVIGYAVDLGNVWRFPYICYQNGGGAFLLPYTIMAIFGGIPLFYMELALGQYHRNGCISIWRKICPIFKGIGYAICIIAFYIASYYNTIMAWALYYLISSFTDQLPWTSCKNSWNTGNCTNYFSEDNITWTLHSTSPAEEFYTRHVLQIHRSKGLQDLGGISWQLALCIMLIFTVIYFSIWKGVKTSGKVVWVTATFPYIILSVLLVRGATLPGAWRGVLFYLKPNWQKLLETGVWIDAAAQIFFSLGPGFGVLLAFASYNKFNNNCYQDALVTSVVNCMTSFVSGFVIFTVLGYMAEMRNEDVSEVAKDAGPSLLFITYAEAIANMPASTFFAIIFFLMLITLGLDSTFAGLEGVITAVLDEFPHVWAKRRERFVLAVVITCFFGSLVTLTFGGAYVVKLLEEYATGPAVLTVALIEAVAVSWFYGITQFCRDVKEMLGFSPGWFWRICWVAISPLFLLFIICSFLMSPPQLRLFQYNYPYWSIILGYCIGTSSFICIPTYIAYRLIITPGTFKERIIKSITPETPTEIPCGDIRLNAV
Chain of M2 (P08172 whole entry): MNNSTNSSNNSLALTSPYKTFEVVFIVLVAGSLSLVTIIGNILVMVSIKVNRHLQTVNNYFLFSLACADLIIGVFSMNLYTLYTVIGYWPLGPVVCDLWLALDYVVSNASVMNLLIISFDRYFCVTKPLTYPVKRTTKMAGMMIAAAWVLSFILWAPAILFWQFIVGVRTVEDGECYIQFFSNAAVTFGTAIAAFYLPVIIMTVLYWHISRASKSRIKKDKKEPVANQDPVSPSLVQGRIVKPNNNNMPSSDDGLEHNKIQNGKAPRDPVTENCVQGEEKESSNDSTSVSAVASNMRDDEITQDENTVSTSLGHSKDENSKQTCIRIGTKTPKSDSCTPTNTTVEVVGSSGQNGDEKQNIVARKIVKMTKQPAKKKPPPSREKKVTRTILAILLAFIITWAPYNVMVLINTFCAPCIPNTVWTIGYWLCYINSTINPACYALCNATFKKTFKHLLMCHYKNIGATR

What is called Ki is the equilibrium dissociation constant of an inhibitor or competing ligand from its target. A word on the solubility: it is the dissolved amount per volume that the medium holds. Consider `COc1ccc(N2CCN(CCCNC(=O)Cn3c(=O)c4cccn4c4c(C)ccnc43)CC2)cc1` [Compound 1{3}, N-(3-(4-(4-Methoxyphenyl)piperazin-1-yl)propyl)-2-(1-methyl-6-oxopyrido[2,3-e]pyrrolo[1,2-a]pyrazin-5(6H)-yl)acetamide], for which the Ki on DOR [1] (Table 5) is 1.44 µM; at MOR [2] (Table 5) it was 1.58 µM; at D3 (Table 5) it was 0.25 µM; at 5ht2b (Table 5), 1.92 µM; at Alpha1D (Table 5) it was over 10 µM; at M2 (Table 5), over 10 µM. In addition, the Ki on M3 (Table 5) is over 10 µM; at H3 (Table 5), over 10 µM; at 5ht1d (Table 5) it was 0.702 µM; on SERT (Table 5), 5.33 µM; at Beta1 (Table 5), over 10 µM. For the same molecule, the fraction unbound at 1 μM in data set [3] (plasma, human, 1 μM, read-out: bound to plasma protein (converted)) was 0.0604. The fraction unbound at 10 μM in [3] (plasma, human, 10 μM, read-out: bound to plasma protein (converted)) is 0.115. Moreover, the “Imax (% NBNI)” value was 90 ± 2^a % NBNI on KOP receptor [4] and 117 ± 5^a % NBNI on KOP receptor [5]. Further, the parent compound remaining in data set [6] came to 94.42%. Also, the IC50 on MOR [7] and at DOR [10] was over 32 µM throughout. Besides, the solubility is over 90 µg/mL in “physchem” (aqueous buffer), 96.6 µg/mL (≈ 198 µM) in “physchem” (pH 5) and 90.6 µg/mL (≈ 185 µM) in the data set “physchem” (pH 6.2). In data set [8], the “blood brain barrier PAMPA permeability” value came out at 51 ×10⁻⁶ cm/s. Also, the entries for the “microsomal stability, remaining” value in data set [9] and in data set [11] were 22% and 7.3%, respectively.

As for `Clc1ccc(CSc2nnc(-c3ccccn3)n2Cc2ccco2)cc1Cl` [Compound 2{8}], the Ki was 5.35 µM at DOR [1] (setting [13]); 1.9 µM at MOR [2] (setting [13]); over 10 µM at D3 (Table 10); 1.24 µM on 5ht2b (Table 10); over 10 µM on Alpha1D (Table 10); over 10 µM on M2 (Table 10). Besides, the Ki at M3 (Table 10), on H3 (Table 10), on 5ht1d (Table 10), at SERT (Table 10) and at Beta1 (Table 10) was over 10 µM in each case. Further, in [3] (human plasma), the bound to plasma was over 99%. Also, the figures for the “solubility in aqueous buffer” value in “physchem” (pH 5.0), in the data set “physchem” (pH 6.2) and in the data set “physchem” (pH 7.4) were under 0.1 µg/mL, 0.29 µg/mL (≈ 0.695 µM) and 0.14 µg/mL (≈ 0.335 µM), respectively. Moreover, the EC50 on MOR [12] is over 32 µM. Moreover, the “microsomal stability, remaining” value in data set [9] and in [11] was 0.03% each time.

Values taken from patent US9345703B2, “Kappa opioid receptor effectors and uses thereof” (University of Kansas, priority 2011, dated 2016).
